Data taken from US11691960B2, “2-[thiophen-2-yl)formamido]-N-(phenyl)-2-methylpropanamide derivatives and the use thereof as medicament” (Boehringer Ingelheim International GmbH, priority 2020, dated 2023).
Read-outs that look alike come from different tables or passages of the source.

Assays:
human Factor Xa = human Factor Xa (Homo sapiens (Human), UniProt P00742); assay: Assay C: human Factor Xa chromogenic substrate assay; type: biochemical; settings: for IC50: human Factor Xa 0.86 nM, chromogenic substrate S2765; for Selectivity Assay C/Assay A: ratio IC50 Factor Xa / IC50 IDO1
human Factor Xa, sequence (P00742 235-488): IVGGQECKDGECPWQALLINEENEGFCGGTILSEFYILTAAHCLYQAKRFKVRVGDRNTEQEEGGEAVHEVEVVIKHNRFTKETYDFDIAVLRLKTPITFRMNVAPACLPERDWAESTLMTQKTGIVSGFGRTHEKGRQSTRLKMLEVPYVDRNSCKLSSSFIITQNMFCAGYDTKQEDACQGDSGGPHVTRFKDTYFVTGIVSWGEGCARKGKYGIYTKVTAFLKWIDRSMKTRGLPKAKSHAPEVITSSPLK
human Factor Xa, sequence (P00742 41-179 partner): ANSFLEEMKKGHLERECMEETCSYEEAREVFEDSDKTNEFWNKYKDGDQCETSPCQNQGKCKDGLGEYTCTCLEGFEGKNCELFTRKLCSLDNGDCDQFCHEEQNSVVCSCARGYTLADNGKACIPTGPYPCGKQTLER
Method: Assay C. In Vitro Testing of Human Factor Xa Potency:
Measurement of active human Factor Xa using a specific chromogenic substrate which is labeled with a p-nitro-anilino group (pNA). The cleavage in between the binding of the peptide substrate and the pNA-group is followed by a color change, which can be detected at 405 nm. The amount of cleaved substrate is directly proportional to the amount of active Xa.
[…] (100 U) human Factor Xa (Enzyme Research Laboratories; HFXa1011) were solved in 0.444 ml H2O (Millipore), which accords to a stock solution of 19.28 μM or 225 U/ml. Further dilutions were made in the assay buffer (Tris 100 mM, NaCL 150 mM, adjusted to a pH of 7.8 with HCL, containing 0.1% BSA and 0.05% Tween20). 25 mg (1 vial) of the chromogenic substrate S2765 (Chromogenix; S2765) was solved in 3.5 ml H2O (Millipore) to achieve a stock solution of 10 mM.
Compounds were solved and diluted in DMSO where the final dilution in the assay is 1:10 resulting in a final concentration of 1% DMSO.
• the prefinal dilution step was 1:10 in the assay buffer containing 11% DMSO resulting in 10% DMSO • final dilution in the assay is 1:10 resulting in a final concentration of 1% DMSO
Compounds were tested at final concentrations of 10 μM to 0.003 nM or lower. 5 μl human factor Xa (final concentration 0.86 nM), 2 μl compound dilution or assay buffer (containing 10% DMSO) and 8 μl assay buffer were pipetted in triplicates into a 384-well plate and incubated in the Thermomix at 24° C. for 10 minutes.
After addition of 5 μl chromogenic substrate (final concentration 0.5 mM) the enzyme-substrate reaction started and the kinetic measurement with the SpectraMax Monochromator was started within 1-2 minutes. • Parameter of measurement: (Spectra ax, Monochromator) • Absorbance; 1.LM 405 nM • Kinetic: 16 min each 2nd minute (9 times) • Negative Control (NC) 5 μl human factor Xa+10 μl assay buffer+5 μl Substrate • Positive Control (PC): 5 μl human factor Xa+2 μl Nafamostat (commercially available, final concentration: 1 μM)+8 μl assay buffer+5 μl Substrate • Blank (optional): 15 μl assay buffer+5 μl Substrate
Calculation of IC50, KI and the % effect at the highest concentration (Ratio)
For the calculation the average of the Vmax-values in between 120 sec to 720 sec were taken.
A x/y-Plot was created: x=log (M, Compound); y=vmax (drfu/min)
The data were analyzed with the curve fitting model: log (inhibitor) vs. response—Variable slope (four parameters)
The results of this fit were Top, Bottom, Log (IC50, M), Hillslope and IC50 (M)

MDR1 (P-gp) = MDR1 (P-gp) (Homo sapiens (Human), UniProt P08183); assay: Assay E: MDCK assay MDR-1 (P-gp); type: in vitro ADME; settings: for efflux ratio at 2 h, 10 μM: human, final test concentration 10 μM
MDR1 (P-gp), sequence (P08183 whole entry): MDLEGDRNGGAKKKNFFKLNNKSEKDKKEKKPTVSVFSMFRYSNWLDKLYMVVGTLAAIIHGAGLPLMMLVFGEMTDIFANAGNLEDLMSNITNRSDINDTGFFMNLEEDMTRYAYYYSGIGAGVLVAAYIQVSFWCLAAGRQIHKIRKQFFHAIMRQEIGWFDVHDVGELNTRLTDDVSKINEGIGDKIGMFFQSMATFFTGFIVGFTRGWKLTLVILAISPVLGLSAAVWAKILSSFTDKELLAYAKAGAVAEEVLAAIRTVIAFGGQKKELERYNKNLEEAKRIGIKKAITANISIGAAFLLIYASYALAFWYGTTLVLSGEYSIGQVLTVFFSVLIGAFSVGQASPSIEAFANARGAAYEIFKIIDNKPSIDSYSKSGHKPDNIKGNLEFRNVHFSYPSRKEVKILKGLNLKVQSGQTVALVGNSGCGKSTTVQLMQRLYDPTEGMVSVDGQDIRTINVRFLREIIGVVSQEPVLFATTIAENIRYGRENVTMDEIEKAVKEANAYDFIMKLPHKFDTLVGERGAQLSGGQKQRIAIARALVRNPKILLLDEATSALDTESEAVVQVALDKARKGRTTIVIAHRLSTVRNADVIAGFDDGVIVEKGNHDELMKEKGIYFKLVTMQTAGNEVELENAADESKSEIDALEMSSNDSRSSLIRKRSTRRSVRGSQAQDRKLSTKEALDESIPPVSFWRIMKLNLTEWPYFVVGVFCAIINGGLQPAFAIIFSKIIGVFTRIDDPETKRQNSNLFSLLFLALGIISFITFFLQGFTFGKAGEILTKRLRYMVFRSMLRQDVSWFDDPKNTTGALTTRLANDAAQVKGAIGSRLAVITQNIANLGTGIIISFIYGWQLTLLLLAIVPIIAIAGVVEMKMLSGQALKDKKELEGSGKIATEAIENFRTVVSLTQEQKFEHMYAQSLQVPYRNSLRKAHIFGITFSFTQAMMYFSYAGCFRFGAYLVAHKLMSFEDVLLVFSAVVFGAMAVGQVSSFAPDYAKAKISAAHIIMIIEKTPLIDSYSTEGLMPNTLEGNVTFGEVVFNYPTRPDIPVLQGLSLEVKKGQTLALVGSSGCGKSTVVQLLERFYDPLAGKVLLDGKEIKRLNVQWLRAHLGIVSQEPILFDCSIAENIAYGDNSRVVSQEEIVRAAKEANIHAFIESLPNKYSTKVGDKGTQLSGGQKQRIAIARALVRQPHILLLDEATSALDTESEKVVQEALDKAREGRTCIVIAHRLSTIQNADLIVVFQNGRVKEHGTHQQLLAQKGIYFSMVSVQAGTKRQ
Method: The MDCK assays provide information on the potential of a compound to pass the blood brain barrier. Permeability measurements across polarized, confluent MDCK-MDR1 cell monolayers grown on permeable filter supports are used as an in vitro absorption model: apparent permeability coefficients (PE) of the compounds across the MDCK-MDR1 cell monolayers are measured (pH 7.4, 37° C.) in apical-to-basal (AB) and basal-to-apical (BA) transport direction. The AB permeability (PEAB) represents drug absorption from the blood into the brain and the BA permeability (PEBA) drug efflux from the brain back into the blood via both, passive permeability as well as active transport mechanisms mediated by efflux and uptake transporters that are expressed on the MDCK-MDR1 cells, predominantly by the overexpressed human MDR1. Identical or similar permeabilities in both transport directions indicate passive permeation, vectorial permeability points to additional active transport mechanisms. Higher PEBA than PEAB (PEBA/PEAB >3) indicates the involvement of active efflux mediated by MDR1, which might compromise the goal to achieve sufficient brain exposure.
Assay E. MDCK assay MDR-1 (P-gp)
Apparent permeability coefficients (Papp) of the compounds across MDCK-MDR1 monolayers (MDCKII cells transfected with human MDR1 gene) are measured in apical-to-basal (AB) and basal-to-apical (BA) direction.
MDCK-MDR1 cells (6×10^5 cells/cm^2) are seeded onto filter inserts (Corning, Transwell, polycarbonate, 0.4 μm pore size) and cultured for 9 to 10 days. Compounds dissolved in DMSO stock solution (1-20 mM) are diluted with HTP-4 buffer (128.13 mM NaCl, 5.36 mM KCl, 1 mM MgSO4, 1.8 mM CaCl2, 4.17 mM NaHCO3, 1.19 mM Na2HPO4, 0.41 mM NaH2PO4, 15 mM HEPES, 20 mM glucose, pH 7.4) supplemented with 0.25% BSA to prepare the transport solutions, resulting in a final test concentration of 1 μM or 10 μM and a final DMSO content of 0.5%. The transport solution is applied to the apical or basolateral donor side for measuring A-B or B-A permeability, respectively. The receiver side contains HTP-4 buffer supplemented with 0.25% BSA. Samples are collected at the start and end of experiment from the donor and at various time intervals for up to 2 hours from the receiver side for concentration measurement by HPLC-MS/MS. Sampled receiver volumes are replaced with fresh receiver solution.
All data reported for Assay E were measured with a final test concentration of 10 μM.

human androgen receptor = human androgen receptor (Homo sapiens (Human), UniProt P10275); assay: Assay B: human androgen receptor luciferase reporter assay (Indigo Biosciences); type: cell-based
human androgen receptor, sequence (P10275 whole entry): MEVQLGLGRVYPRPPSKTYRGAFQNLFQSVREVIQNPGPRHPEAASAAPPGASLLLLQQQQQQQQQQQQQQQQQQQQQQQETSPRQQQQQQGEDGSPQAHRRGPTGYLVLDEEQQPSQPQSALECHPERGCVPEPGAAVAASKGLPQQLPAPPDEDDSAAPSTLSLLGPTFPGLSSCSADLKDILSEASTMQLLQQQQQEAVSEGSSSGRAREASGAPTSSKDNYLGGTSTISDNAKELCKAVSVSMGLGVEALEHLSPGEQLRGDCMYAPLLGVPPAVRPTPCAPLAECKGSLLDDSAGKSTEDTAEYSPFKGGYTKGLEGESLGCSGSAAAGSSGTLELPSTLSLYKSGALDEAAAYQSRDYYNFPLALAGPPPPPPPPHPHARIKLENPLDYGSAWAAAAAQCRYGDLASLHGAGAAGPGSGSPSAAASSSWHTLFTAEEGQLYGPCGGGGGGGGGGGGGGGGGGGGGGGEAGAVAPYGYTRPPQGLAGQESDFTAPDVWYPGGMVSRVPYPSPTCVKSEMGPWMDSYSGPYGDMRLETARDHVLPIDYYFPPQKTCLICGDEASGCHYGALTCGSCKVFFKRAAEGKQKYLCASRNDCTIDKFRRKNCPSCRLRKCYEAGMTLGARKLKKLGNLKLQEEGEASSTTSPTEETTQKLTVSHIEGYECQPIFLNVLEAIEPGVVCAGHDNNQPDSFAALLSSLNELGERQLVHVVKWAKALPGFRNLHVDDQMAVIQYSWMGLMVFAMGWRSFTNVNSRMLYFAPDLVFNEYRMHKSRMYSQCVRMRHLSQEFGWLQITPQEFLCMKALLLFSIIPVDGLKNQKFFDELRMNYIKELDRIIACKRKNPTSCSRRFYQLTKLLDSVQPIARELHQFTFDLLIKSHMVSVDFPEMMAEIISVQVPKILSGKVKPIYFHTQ
Excerpt: Assay B. In Vitro Testing of Androgen Receptor Potency:
The human androgen receptor (AR) assay was run using Product #IB03001 from Indigo Biosciences. The cell line provided in this kit carries a reporter gene, induced upon AR stimulation. This reporter gene is cDNA encoding for beetle luciferase, a 62 kD protein originating from the North American firefly (Photinus pyralis). This luciferase catalyzes the mono-oxidation of D-luciferin yielding oxyluciferin, adenosine monophosphate, pyrophosphate, CO2, and photon emission. The luminescence intensity of the reaction is quantified using a luminometer.
To run the assay, the cells are thawed by adding pre-warmed cell recovery medium to each tube, then placed in a 37° C. water bath. 30000 viable cells in 200 μl are plated (collagen coated plates) and incubated at 37° C., ≥85% humidity, 5% CO2 for 24 hours. Media is replaced with compound screening medium. Cells are then challenged with 125 pM (EC80) 6a-Fl Testosterone and compounds are applied in half logarithmic dilutions from 10 μM to 10 nM. Assay plates are then incubated at 37° C., ≥85% humidity, 5% CO2 for 22-24 hours. Media is replaced with luciferase detection reagent and allowed 5 minutes to equilibrate prior to luminescence quantification.
Data Analysis consisted of calculating percentage of control between 100% (Negative control:6a-Fl Testosterone) and 0 (positive control: no 6a-FL Testosterone). Fitting of normalized values was made 4-Parameter sigmoidal binding curve (Log[conc]) vs. signal.

[1] = Assay F: tissue distribution in rat after oral application; type: in vivo; settings: for in vivo efflux (in words): after oral application; for in vivo efflux (Assay F): oral 10 μmol/kg, muscle/brain tissue distribution
Excerpt: In order to estimate the amount of administered drug to enter the brain, the brain to plasma ratio is used as surrogate parameter. As efflux transporters (e.g. P-gp) are located at the blood-brain barrier, compounds acting as substrates will be actively transported out of the brain. As these efflux transporters are not expressed in muscle tissue, the relative distribution ratio of compound between muscle and brain tissue can be used as indication for an efflux in vivo in rats or mice. In case there is no in vivo efflux detectable (in rats/mice) and in case there is no efflux in vitro (MDCK-MDR1 (P-gp)), a brain exposure in patients can be expected [see Table 7 for comparison of in vitro efflux data (MDCK-MDR1 assay) and in vivo efflux data (tissue distribution in rat/mouse after oral application)].
Assay F. Determination of Tissue Distribution in Rat/Mouse After Oral Application of Compounds
Male Han Wistar rats or C57BL/6NRj mice were orally dosed with 10 μmol/kg of compound to be investigated, suspended in 0.5% Natrosol/0.015% Tween80. Blood was collected in K3EDTA containing vials from the sublingual vein in short time Isoflurane anesthesia in rat or from the saphenous vein in conscious mice at […], 0.25, 0.5, 1, 2, 3, 4, 8 and 24 hours post administration. Subsequently, plasma was prepared by centrifugation for 5 min at 5000 rpm and stored at −20° C.
Tissues and CSF were sampled in anaesthetized animals. CSF was collected from the cisterna magna. Following exsanguination a femoral muscle sample was collected. Cranium and the dura matter were removed and the complete brain was collected. Before transfer of the muscle and brain sample to pre-weight homogenization devices (Precellys®) the tissues were rinsed with saline and blotted dry.
For homogenization, four parts (v/w) homogenization buffer (37.5% acetonitrile, 37.5% methanol, 25% water) were added. Tissues were homogenized with a Precellys® Evolution homogenizer. Five μL of the homogenate were added to 70 μL of a 1 to 1 (v/v) mixture of acetonitrile and methanol and frozen for at least 10 min at −18° C.
For final sample preparation, the sample was centrifuged at 4000 rpm for 1 min, and an aliquot of the resulting supernatant (30 μL) was mixed with 170 μL formic acid prior to injection to LC-MS. Calibration curves were prepared accordingly in rat and mouse plasma, respectively. All animal care and experimental procedures at Boehringer Ingelheim were conducted in compliance with the German and European Animal Welfare Act (EU Directive 2010/63/EU) and were approved by the Regierungspräsidium Tübingen as the responsible local German authority (reference number 35/9185.81-8/14-009-G).

[2] = pH 7.4, MDCK-MDR1 monolayers, mean +− standard deviation, read-out: Efflux ratio Assay E
[3] = MDCK-MDR1, pH 7.4, Table 7, read-out: MDCK-MDR1 efflux ratio (Assay E)

For C#Cc1ccc(C(=O)NC(C)(C(=O)Nc2ccc(N3CCOCC3=O)c(C)c2)C(F)(F)F)s1 (stereo not shown) [5-ethynyl-N-{1-trifluoromethyl-1-[3-methyl-4-(3-oxomorpholin-4-yl)phenylcarbamoyl]ethyl}thiophene-2-carboxamide], which “inhibition of the human Factor Xa enzyme (in words)” value (shortened to “inhibition”) (human Factor Xa) is on record?
The value was “inhibits the human Factor Xa enzyme”.

And the IC50 (human Factor Xa)?
Its IC50 is 48 nM.

What about the “Selectivity Assay C/Assay A” value (human Factor Xa) of the same compound?
Its value is 0.08.

And the “in vitro efflux, MDCK-MDR1 (in words)” value (MDR1 (P-gp))?
The value was “high efflux ratio”.

And the efflux ratio at 2 h, 10 μM (MDR1 (P-gp); [2])?
The efflux ratio at 2 h, 10 μM was 32.

With CC(C)(NC(=O)c1ccc(Cl)s1)C(=O)Nc1ccc(Cl)cc1 [Example 5, 2-[(5-chlorothiophen-2-yl)formamido]-N-(4-chlorophenyl)-2-methylpropanamide] as the compound, how does the IC50 (human androgen receptor; challenge with 125 pM (EC80) 6a-Fl Testosterone, mean +− standard deviation) read?
The IC50 was over 10000 nM.

And the “Selectivity Assay B/Assay A” value (human androgen receptor; ratio IC50 androgen receptor / IC50 IDO1)?
The value was over 58.

What about the IC50 (human Factor Xa) of the same compound?
The IC50 was over 10000 nM.

And the “Selectivity Assay C/Assay A” value (human Factor Xa)?
The value was over 57.

What does the source list for Cc1cc(NC(=O)C(C)(C)NC(=O)c2ccc(Cl)s2)ccc1C(=O)N1CCCC1 [WO2005/111014 Ex. 4]?
inhibition of the human Factor Xa enzyme (in words) (human Factor Xa): inhibits the human Factor Xa enzyme; IC50 (human Factor Xa): 8 nM; Selectivity Assay C/Assay A (human Factor Xa): 0.03; in vitro efflux, MDCK-MDR1 (in words) (MDR1 (P-gp)): high efflux; efflux ratio at 2 h, 10 μM (MDR1 (P-gp); [2]): 5.7

With Cc1cc(NC(=O)C(C)(C)NC(=O)c2ccc(Cl)s2)ccc1N1CCOCC1=O [WO2005/111029 Ex. 8] as the compound, how does the “inhibition” value (human Factor Xa) read?
Its value is “inhibit the human Factor Xa enzyme”.

And the IC50 (human Factor Xa)?
The IC50 was 40 nM.

What about the “Selectivity Assay C/Assay A” value (human Factor Xa) of the same compound?
Its value is 0.01.

And the “in vitro efflux, MDCK-MDR1 (in words)” value (MDR1 (P-gp))?
Its value is “high efflux”.

Which “inhibition” value (human Factor Xa) does the source give for CC(C)(NC(=O)c1ccc(Br)s1)C(=O)Nc1ccc(N2CCOCC2=O)c(Cl)c1 [WO2005/111029 Ex. 28] here?
Its value is “inhibit the human Factor Xa enzyme”.

And the IC50 (human Factor Xa)?
Its IC50 is 26 nM.

And the “Selectivity Assay C/Assay A” value (human Factor Xa)?
Its value is 0.11.

And the “in vitro efflux, MDCK-MDR1 (in words)” value (MDR1 (P-gp))?
The value was “high efflux”.

With CC(C)(NC(=O)c1ccc(Cl)s1)C(=O)Nc1ccc2c(c1)CCN(C(=O)C(F)(F)F)CC2 [WO2007/003536 Ex. 4] as the compound, how does the IC50 (human Factor Xa) read?
Its IC50 is over 10000 nM.

And the “Selectivity Assay C/Assay A” value (human Factor Xa)?
Its value is over 175.

What about the efflux ratio at 2 h, 10 μM (MDR1 (P-gp); [3]) of the same compound?
Its efflux ratio at 2 h, 10 μM is 1.

What about the “in vivo efflux (in words)” value [1] of the same compound?
The value was “substantial in vivo efflux”.

What about the “in vivo efflux (Assay F)” value [1] of the same compound?
The value was 3.3 (rat).

For CC(=O)N1CCc2ccc(NC(=O)C(C)(C)NC(=O)c3ccc(Cl)s3)cc2CC1 [WO2007/003536 Ex. 6], which IC50 (human Factor Xa) is on record?
The IC50 was over 10000 nM.

And the “Selectivity Assay C/Assay A” value (human Factor Xa)?
The value was over 164.

What about the efflux ratio at 2 h, 10 μM (MDR1 (P-gp); [3]) of the same compound?
The efflux ratio at 2 h, 10 μM was 7.6.

And the “in vivo efflux (in words)” value [1]?
The value was “substantial in vivo efflux”.

What about the “in vivo efflux (Assay F)” value [1] of the same compound?
The value was 12.6 (rat).

What does the source list for CC(C)(NC(=O)c1ccc(Cl)s1)C(=O)Nc1ncc2c(n1)CCN(Cc1ccccc1)CC2 [WO2007/003536 Ex. 159]?
IC50 (human Factor Xa): > 10000 nM; Selectivity Assay C/Assay A (human Factor Xa): >13; efflux ratio at 2 h, 10 μM (MDR1 (P-gp); [3]): 1.8; in vivo efflux (in words) [1]: substantial in vivo efflux; in vivo efflux (Assay F) [1]: 6.2 (rat)
